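These data come from cells grown in 96-well plates and exposed to compound for 48 hours at five concentrations. Definition used: TGI = concentration required for complete inhibition of growth.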
Tests used:
Assay in all cases: DTP human tumour cell line panel, 48 h
T-47D breast = system: T-47D breast
SK-OV-3 ovarian = system: SK-OV-3 ovarian
OVCAR-8 ovarian = system: OVCAR-8 ovarian
UACC-62 melanoma = system: UACC-62 melanoma
A549 NSCLC = system: A549 NSCLC
RPMI-8226 leukemia = system: RPMI-8226 leukemia
NCI-H460 lung = system: NCI-H460 lung
NCI-H226 lung = system: NCI-H226 lung
DU-145 prostate = system: DU-145 prostate
KM12 colon = system: KM12 colon
SN12C renal = system: SN12C renal
HS 578T breast = system: HS 578T breast
HOP-62 NSCLC = system: HOP-62 NSCLC
MDA-MB-231 breast = system: MDA-MB-231 breast
NCI-H522 lung = system: NCI-H522 lung
786-0 renal = system: 786-0 renal
OVCAR-3 ovarian = system: OVCAR-3 ovarian
LOX IMVI melanoma = system: LOX IMVI melanoma
SF-295 CNS = system: SF-295 CNS
OVCAR-5 ovarian = system: OVCAR-5 ovarian

Compound | TGI (T-47D breast) [µM] | TGI (SK-OV-3 ovarian) [µM] | TGI (OVCAR-8 ovarian) [µM] | TGI (UACC-62 melanoma) [µM] | TGI (A549 NSCLC) [µM] | TGI (RPMI-8226 leukemia) [µM] | TGI (NCI-H460 lung) [µM] | TGI (NCI-H226 lung) [µM] | TGI (DU-145 prostate) [µM] | TGI (KM12 colon) [µM] | TGI (SN12C renal) [µM] | TGI (HS 578T breast) [µM] | TGI (HOP-62 NSCLC) [µM] | TGI (MDA-MB-231 breast) [µM] | TGI (NCI-H522 lung) [µM] | TGI (786-0 renal) [µM] | TGI (OVCAR-3 ovarian) [µM] | TGI (LOX IMVI melanoma) [µM] | TGI (SF-295 CNS) [µM] | TGI (OVCAR-5 ovarian) [µM]
Cc1ccc(NC(Nc2ccc(C)cc2C)=C(C(Cl)=C(Cl)Cl)[N+](=O)[O-])c(C)c1 | 32.1 | 39.8 | 33.9 | 31.9 | 28.4 | 52.8 | 29.7 | 32.3 | 27.9 | 29.2 | 33 | > 100 | 34.2 | 33 | 28 | 30.1 | 29.7 | 20.4 |  | 
O=c1c2cc(I)ccc2nc(SCc2nncs2)n1Cc1ccccc1 | > 100 | > 100 | > 100 | > 100 | > 100 | > 100 | > 100 | > 100 | > 100 | > 100 | > 100 | 57.8 | > 100 | 76.7 | 61 | > 100 | > 100 | > 100 | > 100 | > 100
O=C(O)CCCC(=O)Nn1c(Cc2ccc(Cl)cc2)n[nH]c1=O | > 100 | > 100 | > 100 | > 100 | > 100 | > 100 |  | > 100 | > 100 | > 100 | > 100 | > 100 | > 100 | > 100 | > 100 | > 100 | > 100 | > 100 | > 100 | > 100
C=C=C(CC1CCCCC1=O)S(=O)(=O)c1ccccc1 (stereo not drawn) | > 10 | > 10 | > 10 | > 10 | > 10 | > 4.76 | > 10 | > 10 | > 10 |  | > 10 | > 10 | > 10 | > 10 | 6.71 | > 10 | > 10 | > 10 | > 10 | > 10
COc1ccc(N=N/C(=N/NC(=O)c2ccc(C)cc2)c2ccc(N(CCC#N)CCC#N)cc2OC)cc1 | > 100 | > 100 | > 100 | > 100 | > 100 |  | > 100 | > 100 | > 100 | > 100 | > 100 | > 100 | > 100 | > 100 | > 100 | > 100 | > 100 | > 100 | > 100 | > 100
O=c1[nH]c2nnc(COc3ccc(Cl)cc3Cl)n2nc1Cc1ccccc1 | > 100 | 58.8 | 53.9 |  | > 100 | > 100 | > 100 | 67.5 | > 100 | > 100 | > 100 | > 100 | > 100 | > 100 | > 100 | 43.8 | 74.3 | > 100 | > 100 | > 100
CCOC(=O)c1c[nH]c2c(Sc3ccccc3)nccc2c1=O | > 100 | > 100 | > 100 | > 100 | > 100 |  | > 100 | > 100 | > 100 | > 100 | > 100 | > 100 | > 100 | > 100 | 74 | > 100 | > 100 | > 100 | > 100 | > 100
COC(=O)C(NC(=O)C(CC(=O)OC(C)(C)C)NC(=O)OC(C)(C)C)C(O)c1ccccc1 (stereo not drawn) | > 100 | 61.9 | > 100 | 70.8 | > 100 | > 100 | > 100 | > 100 | > 100 | > 100 | > 100 | > 100 | > 100 | > 100 | > 100 | > 100 | > 100 | > 100 |  | > 100
O=c1[nH]c(Cc2ccccc2)nc2c1sc1nc3ccccc3n12 | > 100 | > 100 | > 100 | > 100 | > 100 | > 100 | > 100 | > 100 | > 100 | > 100 | > 100 | > 100 |  | > 100 | > 100 | > 100 | > 100 | > 100 | > 100 | > 100
COC(=O)/C(C#N)=C(\Nc1ccccc1)N1CCOCC1 | > 100 | > 100 | > 100 |  | > 100 | > 100 | > 100 | > 100 | > 100 |  | > 100 | > 100 | > 100 | > 100 | > 100 | > 100 | > 100 | > 100 | > 100 | > 100
N#Cc1nc(CCN2C(=O)c3ccccc3C2=O)oc1N | > 100 | > 100 | > 100 |  | > 100 | > 100 | > 100 | > 100 | > 100 | > 100 | > 100 | > 100 | > 100 | > 100 | > 100 | > 100 | > 100 | > 100 | > 100 | > 100

Source: PubChem BioAssay (NCI)
